Experimental data published in ChEMBL document CHEMBL1138941, “BACE-1 inhibition by a series of psi[CH2NH] reduced amide isosteres” (Bioorg Med Chem Lett, 2006).
pIC50: −log10 of the molar value.

Key:
Beta-secretase 1 [1] = biological target: T1, Beta-secretase 1 (Homo sapiens, UniProt P56817); assay: Inhibition of BACE1
Beta-secretase 1 [2] = biological target: T1, Beta-secretase 1; assay: Inhibition of soluble APPbeta N-terminal fragment production in HEK293T cells; assay type: functional, cell-based, HEK-293T
[3] = Apparent permeability of the compound; assay type: ADME; conditions: not told

T1 sequence (P56817 whole entry, the tested form may be a part): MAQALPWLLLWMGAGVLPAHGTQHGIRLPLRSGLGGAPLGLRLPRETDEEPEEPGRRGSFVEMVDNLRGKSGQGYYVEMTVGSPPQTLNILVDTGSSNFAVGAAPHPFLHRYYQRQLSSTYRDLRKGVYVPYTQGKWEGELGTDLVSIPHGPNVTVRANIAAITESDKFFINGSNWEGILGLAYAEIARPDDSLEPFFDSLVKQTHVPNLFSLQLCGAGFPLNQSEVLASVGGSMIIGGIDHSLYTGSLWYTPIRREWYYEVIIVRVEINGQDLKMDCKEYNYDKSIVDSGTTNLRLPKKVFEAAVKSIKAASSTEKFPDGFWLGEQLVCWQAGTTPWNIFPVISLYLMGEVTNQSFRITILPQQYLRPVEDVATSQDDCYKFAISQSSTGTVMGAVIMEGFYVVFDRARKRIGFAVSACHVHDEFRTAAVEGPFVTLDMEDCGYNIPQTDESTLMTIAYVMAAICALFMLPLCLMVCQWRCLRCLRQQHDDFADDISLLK

SMILES	pIC50 (Beta-secretase 1 [1])	pIC50 (Beta-secretase 1 [2])	Papp [3] [×10⁻⁶ cm/s]
CC(C)CNC(=O)[C@H](C)NC[C@H](Cc1ccccc1)NC(=O)c1cc(CCC2C[C@@H]2C)cc(N(C)S(C)(=O)=O)c1 (stereo partly specified)	7.70	7.64	24
CC[C@H](NC[C@H](Cc1ccccc1)NC(=O)c1cc(C(=O)N[C@H](C)c2ccc(F)cc2)cc(N(C)S(C)(=O)=O)c1)C(=O)NCC(C)C	8.15	7.70	
C[C@H](NC[C@H](Cc1ccccc1)NC(=O)c1cc(C(=O)N[C@H](C)c2ccc(F)cc2)cc(N(C)S(C)(=O)=O)c1)C(=O)N1CCC[C@H]1C(=O)O	4.76	< 4.70	
CC(C)CNC(=O)[C@H](CCO)NC[C@H](Cc1ccccc1)NC(=O)c1cc(C(=O)N[C@H](C)c2ccc(F)cc2)cc(N(C)S(C)(=O)=O)c1	7.89	6.12	
CCNC(=O)[C@H](C)NC[C@H](Cc1ccccc1)NC(=O)c1cc(C(=O)N[C@H](C)c2ccc(F)cc2)cc(N(C)S(C)(=O)=O)c1	7.28	6.62	
CC(C)CNC(=O)[C@H](CCS(C)(=O)=O)NC[C@H](Cc1ccccc1)NC(=O)c1cc(C(=O)N[C@H](C)c2ccc(F)cc2)cc(N(C)S(C)(=O)=O)c1	7.89	4.76	
CC(C)CNC(=O)[C@H](C)NC[C@H](Cc1ccccc1)NC(=O)c1cc(C(=O)N[C@H](C)c2ccc(F)cc2)cc(N(C)S(C)(=O)=O)c1		7.66	10
CC(C)CNC(=O)CNC[C@H](Cc1ccccc1)NC(=O)c1cc(C(=O)N[C@H](C)c2ccc(F)cc2)cc(N(C)S(C)(=O)=O)c1	6.93	5.43	
C[C@@H](NC(=O)c1cc(C(=O)N[C@H](CO)Cc2ccccc2)cc(N(C)S(C)(=O)=O)c1)c1ccc(F)cc1	6.20		
C[C@H](NC[C@H](Cc1ccccc1)NC(=O)c1cc(C(=O)N[C@H](C)c2ccc(F)cc2)cc(N(C)S(C)(=O)=O)c1)C(=O)NC1CC1	7.62	6.88	
CCC[C@H](NC[C@H](Cc1ccccc1)NC(=O)c1cc(C(=O)N[C@H](C)c2ccc(F)cc2)cc(N(C)S(C)(=O)=O)c1)C(=O)NCC(C)C	8.40	7.77	
C[C@@H](NC(=O)c1cc(C(=O)N[C@@H](Cc2ccccc2)[C@H](O)CNC2CC2)cc(N(C)S(C)(=O)=O)c1)c1ccc(F)cc1			0.6
C[C@@H](NC(=O)c1cc(C(=O)N[C@H](CN)Cc2ccccc2)cc(N(C)S(C)(=O)=O)c1)c1ccc(F)cc1	5.23		
C[C@H](NC[C@H](Cc1ccccc1)NC(=O)c1cc(C(=O)N[C@H](C)c2ccc(F)cc2)cc(N(C)S(C)(=O)=O)c1)C(=O)NCc1ccccc1	6.86	6.14	
